Data reported in PubChem BioAssay (NCI).
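Tested at 5 concentrations; 48 h exposure; 96-well plates; endpoints linearly interpolated, else capped at highest concentration. At the TGI there is no net growth.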

Key:
Assay in all cases: NCI anticancer screen, dose series, 48 h
KM20L2 colon = test system: KM20L2 colon
NCI-H522 lung = test system: NCI-H522 lung
RPMI-8226 leukemia = test system: RPMI-8226 leukemia
SK-OV-3 ovarian = test system: SK-OV-3 ovarian
NCI-H460 lung = test system: NCI-H460 lung
DMS 114 small cell lung = test system: DMS 114 small cell lung
SF-539 CNS = test system: SF-539 CNS
HCC-2998 colon = test system: HCC-2998 colon
M14 melanoma = test system: M14 melanoma
K-562 leukemia = test system: K-562 leukemia
SF-295 CNS = test system: SF-295 CNS
CCRF-CEM leukemia = test system: CCRF-CEM leukemia
SR leukemia = test system: SR leukemia
TK-10 renal = test system: TK-10 renal
M19-MEL melanoma = test system: M19-MEL melanoma
MALME-3M melanoma = test system: MALME-3M melanoma
U251 CNS = test system: U251 CNS
OVCAR-8 ovarian = test system: OVCAR-8 ovarian
EKVX NSCLC = test system: EKVX NSCLC
DMS 273 small cell lung = test system: DMS 273 small cell lung
SW-620 colon = test system: SW-620 colon
UACC-257 melanoma = test system: UACC-257 melanoma
SF-268 CNS = test system: SF-268 CNS
IGROV1 ovarian = test system: IGROV1 ovarian
LXFL 529 NSCLC = test system: LXFL 529 NSCLC
HCT-116 colon = test system: HCT-116 colon
SNB-19 CNS = test system: SNB-19 CNS
SK-MEL-5 melanoma = test system: SK-MEL-5 melanoma
LOX IMVI melanoma = test system: LOX IMVI melanoma
UO-31 renal = test system: UO-31 renal
SN12C renal = test system: SN12C renal
HT29 colon = test system: HT29 colon
UACC-62 melanoma = test system: UACC-62 melanoma
XF 498 CNS = test system: XF 498 CNS
NCI-H226 lung = test system: NCI-H226 lung
ACHN renal = test system: ACHN renal
KM12 colon = test system: KM12 colon
HL-60(TB) leukemia = test system: HL-60(TB) leukemia
A549 NSCLC = test system: A549 NSCLC
MOLT-4 leukemia = test system: MOLT-4 leukemia
786-0 renal = test system: 786-0 renal
SK-MEL-28 melanoma = test system: SK-MEL-28 melanoma
NCI-H23 lung = test system: NCI-H23 lung
OVCAR-3 ovarian = test system: OVCAR-3 ovarian
HCT-15 colon = test system: HCT-15 colon
COLO 205 colon = test system: COLO 205 colon
SNB-75 CNS = test system: SNB-75 CNS
HOP-62 NSCLC = test system: HOP-62 NSCLC
RXF-631 renal = test system: RXF-631 renal
OVCAR-5 ovarian = test system: OVCAR-5 ovarian
HOP-18 NSCLC = test system: HOP-18 NSCLC
A498 renal = test system: A498 renal
HOP-92 NSCLC = test system: HOP-92 NSCLC
DLD-1 colon = test system: DLD-1 colon
OVCAR-4 ovarian = test system: OVCAR-4 ovarian
SNB-78 CNS = test system: SNB-78 CNS
CAKI-1 renal = test system: CAKI-1 renal
RXF 393 renal = test system: RXF 393 renal

## CC1(C)CC(C2CC(C)(C)CC(C)(C)[C@H]2O)[C@@H](O)C(C)(C)C1 (some centres not stated)
KM20L2 colon
  TGI: > 100 µM
NCI-H522 lung
  TGI: > 100 µM
RPMI-8226 leukemia
  TGI: > 100 µM
SK-OV-3 ovarian
  TGI: > 100 µM
NCI-H460 lung
  TGI: > 100 µM
DMS 114 small cell lung
  TGI: > 100 µM
SF-539 CNS
  TGI: > 100 µM
HCC-2998 colon
  TGI: > 100 µM
M14 melanoma
  TGI: > 100 µM
K-562 leukemia
  TGI: > 100 µM
SF-295 CNS
  TGI: > 100 µM
CCRF-CEM leukemia
  TGI: > 100 µM
SR leukemia
  TGI: > 100 µM
TK-10 renal
  TGI: > 100 µM
M19-MEL melanoma
  TGI: > 100 µM
MALME-3M melanoma
  TGI: > 100 µM
U251 CNS
  TGI: > 100 µM
OVCAR-8 ovarian
  TGI: > 100 µM
EKVX NSCLC
  TGI: > 100 µM
DMS 273 small cell lung
  TGI: > 100 µM
SW-620 colon
  TGI: > 100 µM
UACC-257 melanoma
  TGI: > 100 µM
SF-268 CNS
  TGI: > 100 µM
IGROV1 ovarian
  TGI: > 100 µM
LXFL 529 NSCLC
  TGI: > 100 µM
HCT-116 colon
  TGI: > 100 µM
SNB-19 CNS
  TGI: > 100 µM
SK-MEL-5 melanoma
  TGI: > 100 µM
LOX IMVI melanoma
  TGI: > 100 µM
UO-31 renal
  TGI: > 100 µM
SN12C renal
  TGI: > 100 µM
HT29 colon
  TGI: > 100 µM
UACC-62 melanoma
  TGI: > 100 µM
XF 498 CNS
  TGI: > 100 µM
NCI-H226 lung
  TGI: > 100 µM
ACHN renal
  TGI: > 100 µM
KM12 colon
  TGI: > 100 µM
HL-60(TB) leukemia
  TGI: > 100 µM
A549 NSCLC
  TGI: > 100 µM
MOLT-4 leukemia
  TGI: > 100 µM
786-0 renal
  TGI: > 100 µM
SK-MEL-28 melanoma
  TGI: > 100 µM
NCI-H23 lung
  TGI: > 100 µM
OVCAR-3 ovarian
  TGI: > 100 µM
HCT-15 colon
  TGI: > 100 µM
COLO 205 colon
  TGI: > 100 µM

## O=C(NCCS(=O)(=O)N1C(=O)C2CCCN2C(=O)[C@@H]1Cc1ccccc1)OCc1ccccc1 (some centres not stated)
SNB-75 CNS
  TGI: > 100 µM
KM20L2 colon
  TGI: > 100 µM
NCI-H522 lung
  TGI: > 100 µM
RPMI-8226 leukemia
  TGI: 64.4 µM
SK-OV-3 ovarian
  TGI: > 100 µM
HOP-62 NSCLC
  TGI: > 100 µM
RXF-631 renal
  TGI: > 100 µM
NCI-H460 lung
  TGI: > 100 µM
DMS 114 small cell lung
  TGI: 89.2 µM
SF-539 CNS
  TGI: > 100 µM
HCC-2998 colon
  TGI: 73.2 µM
M14 melanoma
  TGI: > 100 µM
OVCAR-5 ovarian
  TGI: > 100 µM
K-562 leukemia
  TGI: > 100 µM
HOP-18 NSCLC
  TGI: > 100 µM
SF-295 CNS
  TGI: > 100 µM
CCRF-CEM leukemia
  TGI: > 100 µM
SR leukemia
  TGI: > 100 µM
TK-10 renal
  TGI: > 100 µM
A498 renal
  TGI: 95.9 µM
HOP-92 NSCLC
  TGI: > 100 µM
MALME-3M melanoma
  TGI: > 100 µM
U251 CNS
  TGI: > 100 µM
OVCAR-8 ovarian
  TGI: > 100 µM
EKVX NSCLC
  TGI: > 100 µM
SW-620 colon
  TGI: > 100 µM
DLD-1 colon
  TGI: > 100 µM
UACC-257 melanoma
  TGI: > 100 µM
SF-268 CNS
  TGI: > 100 µM
IGROV1 ovarian
  TGI: > 100 µM
LXFL 529 NSCLC
  TGI: > 100 µM
HCT-116 colon
  TGI: > 100 µM
SNB-19 CNS
  TGI: > 100 µM
SK-MEL-5 melanoma
  TGI: > 100 µM
OVCAR-4 ovarian
  TGI: > 100 µM
LOX IMVI melanoma
  TGI: > 100 µM
UO-31 renal
  TGI: > 100 µM
SN12C renal
  TGI: > 100 µM
HT29 colon
  TGI: > 100 µM
UACC-62 melanoma
  TGI: > 100 µM
XF 498 CNS
  TGI: 11 µM
NCI-H226 lung
  TGI: > 100 µM
ACHN renal
  TGI: > 100 µM
KM12 colon
  TGI: > 100 µM
SNB-78 CNS
  TGI: > 100 µM
HL-60(TB) leukemia
  TGI: 48.9 µM
A549 NSCLC
  TGI: > 100 µM
CAKI-1 renal
  TGI: > 100 µM
MOLT-4 leukemia
  TGI: > 100 µM
786-0 renal
  TGI: > 100 µM
RXF 393 renal
  TGI: > 100 µM
SK-MEL-28 melanoma
  TGI: > 100 µM
NCI-H23 lung
  TGI: > 100 µM
OVCAR-3 ovarian
  TGI: 70.2 µM
HCT-15 colon
  TGI: > 100 µM
COLO 205 colon
  TGI: 58.4 µM
